Series [1] has as its system KB (human epidermoid carcinoma). In words: In vitro cytotoxicity, clonogenic assay (plating efficiency). The series is classed as cell-based. Conditions: for fold more toxic than maytansine: KB and SKBR3 cells, ratio of IC50 values; for times less toxic than L counterpart: D-aminoacyl isomer vs L counterpart (6c, 6e), all three cell lines (KB, SKBR3, Namalwa). The source says: (§1) Cytotoxicity of the maytansinoids and their antibody conjugates to non-adherent cell lines such as Namalwa and HL-60 can be measured by back-extrapolation of cell proliferation curves as described in Goldmacher et al, 135 J. Immunol. 3648-3651 (1985). Cytotoxicity of these compounds to adherent cell lines such as SKBR3 and KB can be determined by clonogenic assays as described in Goldmacher et al, 102 J. Cell Biol. 1312-1319 (1986).
(§2) The disulfide-containing maytansinoid drugs of the invention were evaluated for their ability to suppress proliferation of various human tumor cell lines in vitro. Two adherent cell lines KB (human epidermoid carcinoma) and SKBR3 (human breast tumor) and the non-adherent cell line, Namalwa (Burkitt's lymphoma) were used for the assessment of cytotoxicity of these compounds. Cells were exposed to the compounds for 24 hours and the surviving fractions of cells were measured in direct assays.
(§3) Cells of the human promyelocytic leukemia cell line, HL-60 (ATCC CCL 240) and the Burkitt's lymphoma cell line Namalwa (ATCC CRL 1432) were grown as suspension cultures in RPMI-1640 medium supplemented with 10% fetal calf serum and 2 mM L-glutamine. All other cell lines described below were grown as adherent cultures. Human epidermoid carcinoma cell line, KB (ATCC CCL 17), human renal carcinoma cell line A498 (ATCC HTB 44), human colon adenocarcinoma cell lines SW620 (ATCC CCL 227) and HT-29 (ATCC HTB 38) were grown in RPMI-1640 medium supplemented with 10% fetal calf serum and 2 mM L-glutamine. Human breast carcinoma SKBR3 cells (ATCC HTB 30) were grown in DMEM supplemented with 15% fetal calf serum containing 2 mM glutamine and the human ovarian adenocarcinoma cell line OVCAR3 (ATCC HTB 161) was grown in RPMI-1640 medium supplemented with 10% fetal calf serum containing 10 µg/ml insulin and 2 mM L-glutamine.
(§4) Cytotoxicity assays were performed in the respective media described above. The cytotoxicity of the maytansinoids and their antibody conjugates to HL-60 and Namalwa cells was measured by back-extrapolation of cell proliferation curves. Cytotoxicity of these compounds to the rest of the cell lines was determined using a clonogenic assay as previously described.

The subject of series [2] is SKBR3 (human breast tumor). The series is described as above. Type of series: cell-based.
Text: as §1
The disulfide-containing maytansinoid drugs of the invention were evaluated for their ability to suppress proliferation of various human tumor cell lines in vitro. Two adherent cell lines KB (human epidermoid carcinoma) and SKBR3 (human breast tumor) and the non-adherent cell line, Namalwa (Burkitt's lymphoma) were used for the assessment of cytotoxicity of these compounds. […]
as §3, §4

The subject of series [3] is Namalwa (Burkitt's lymphoma). The series is described as follows: In vitro cytotoxicity, growth back-extrapolation. The series is classed as cell-based, human.
Text: as §1, §2, §3, §4

Series [4] relates to SW620 (Colon adenocarcinoma). The series is described as follows: In vitro cytotoxicity, clonogenic assay. The series is classed as cell-based, human. The note with it: for IC50: Homo sapiens, read-out: IC50(24hr.exposure). How it is done: as §3, §4
The subject of series [5] is A498 (Renal carcinoma). In words: In vitro cytotoxicity, clonogenic assay. Type of series: cell-based, human. The note with it: for IC50: Homo sapiens, A498, 24hr exposure. On the procedure: (§5) Since the methyldithio-maytansinoids are even more toxic than maytansine to solid tumor cell lines like KB and SKBR3, a wider panel of solid tumor cell lines was tested in a manner analogous to that described above to see whether this was a general phenomenon.
as §3, §4

The subject of series [6] is Ovcar3 (Ovarian carcinoma). The series is described as follows: In vitro cytotoxicity, clonogenic assay. The note with it: for IC50: Homo sapiens, OVCAR-3, 24 h, read-out: IC50(24hr.exposure). On the procedure:
as §3, §4

Series [7] concerns HL60(Promyelocytic leukemia). In words: In vitro cytotoxicity, back-extrapolation of cell proliferation curves. The series is classed as cell-based. Conditions: Homo sapiens, HL-60; HL60, 24hr exposure. On the procedure: as §5
as §3, with “Human breast carcinoma SKBR3 cells (ATCC HTB 30) were grown in DMEM supplemented with 15% fetal calf serum containing 2 mM glutamine and the human ovarian adenocarcinoma cell line OVCAR3 (ATCC HTB 161) was grown in RPMI-1640 medium supplemented with 10% fetal calf serum containing 10 µg/ml insulin and 2 mM L-glutamine.” left out
as §4

For series [8], the system named is L1210 cells. Conditions: L1210 cells in vitro; cited from earlier work.
For series [9], the system named is P388, L1210, and LY5178 murine leukemic cell suspensions. The note with it: P388, L1210 and LY5178, P388 most sensitive; cited from earlier work.
The test system of series [10] is human acute lymphoblastic leukemia line C.E.M. Conditions: cited from earlier work.
For series [11], the system named is P388 lymphocytic leukemia system. Conditions: cited from earlier work.
[12] abbreviates: Homo sapiens, 24 h, NAMALWA, 24 hour exposure, read-out: IC50.
Where [13] appears, read: Homo sapiens, 24 h, Namalwa, 24hr exposure (Table 2), read-out: IC50(24hr.exposure).
[14] abbreviates: Homo sapiens, 24 h, KB, 24 hour exposure.
The mark [15] stands for this setting: Homo sapiens, SK-BR-3, 24 h, SKBR3, 24 hour exposure.

Like-named read-outs stand apart in the source and are kept apart here.

With `COc1cc2cc(c1Cl)N(C)C(=O)C[C@H](OC(=O)[C@H](C)N(C)C(C)=O)[C@]1(C)O[C@H]1[C@H](C)[C@@H]1C[C@@](O)(NC(=O)O1)[C@H](OC)/C=C/C=C(\C)C2` [Compound 1a, maytansine, reference compound], the concentration for half-maximal inhibition (IC50) in [1] (Homo sapiens, 24 h, KB, 24 hour exposure, read-out: IC50) was 30 pM; in series [1] (Homo sapiens, 24 h, KB, 24hr exposure (Table 2), read-out: IC50(24hr.exposure)), 34 pM; in series [2] (Homo sapiens, SK-BR-3, 24 h, SKBR3, 24 hour exposure, read-out: IC50) it was 100 pM; in series [2] (Homo sapiens, SK-BR-3, 24 h, SKBR3, 24hr exposure (Table 2), read-out: IC50(24hr.exposure)), 110 pM; in [3] (setting [12]) it was 400 pM; in [3] (setting [13]), 400 pM. The half-inhibitory concentration (IC50) in series [4] (SW-620, SW620, 24hr exposure) is > 100 pM; in series [5], > 100 pM; in [6] it was 100 pM; in series [7] it was 500 pM. In addition, the surviving fraction in series [4] (SW620, at 1x10^-10 M) was determined as 100%; in series [5] (A498, at 1x10^-10 M), 100%. For the same molecule, the “cells accumulating in mitosis” value in series [8] was 67%. The “inhibited at doses of” value in series [9] is recorded as 10^-3 to 10^-7 microgram/ml. For the same molecule, the “inhibited by concentrations as low as” value in series [10] is recorded as 10^-7 microgram/ml. For the same molecule, the “dosage range over which tumor growth was inhibited” value in series [11] is 50- to 100 fold.

On to `COc1cc2cc(c1Cl)N(C)C(=O)C[C@H](OC(=O)[C@H](C)N(C)C(=O)CCSSC)[C@]1(C)O[C@H]1[C@H](C)[C@@H]1C[C@@](O)(NC(=O)O1)[C@H](OC)/C=C/C=C(\C)C2` [Compound 6b], for which the IC50 is ≤ 10 pM in series [1] (setting [14]); 11 pM in [1] (Homo sapiens, 24 h, read-out: IC50(24hr.exposure), KB, 24hr exposure (Table 2)); ≤ 10 pM in series [2] (setting [15]); 11 pM in series [2] (SKBR3, 24 hour exposure); 1x10^-13 Molar in series [2] (SKBR3, 72hr exposure); 6000 pM in [3] (setting [13]). Further, the IC50 was 40 pM in series [4] (SW-620, 24 h); 100 pM in series [5]; 50 pM in [6]; 800 pM in series [7]. In series [1], the “fold more toxic than maytansine” value is 3-10 fold. The “cytotoxicity relative to maytansine” value in series [6] (OVCAR3) is on record as “twice as cytotoxic”.

For the molecule `COc1cc2cc(c1Cl)N(C)C(=O)C[C@H](OC(=O)[C@H](C)N(C)C(=O)CCCSSC)[C@]1(C)O[C@H]1[C@H](C)[C@@H]1C[C@@](O)(NC(=O)O1)[C@H](OC)/C=C/C=C(\C)C2` [Compound 6c], the IC50 in series [1] (setting [14]) is ≤ 10 pM; in series [1] (KB, 24 hour exposure), 8.5 pM; in [3] (setting [12]) it was ≥ 3000 pM; in series [3] (NAMALWA, 24 hour exposure, read-out: IC50) it was 3200 pM. The “fold more toxic than maytansine” value in series [1] is 3-10 fold.

`COc1cc2cc(c1Cl)N(C)C(=O)C[C@H](OC(=O)[C@@H](C)N(C)C(=O)CCCSSC)[C@]1(C)O[C@H]1[C@H](C)[C@@H]1C[C@@](O)(NC(=O)O1)[C@H](OC)/C=C/C=C(\C)C2` [Compound 6d]: the “times less toxic than L counterpart” value in series [1] is recorded as ≥ 20 times. The 50% inhibitory concentration (IC50) in series [1] (setting [14]) is 190 pM; in series [3] (setting [12]), 13000 pM.

Regarding `COc1cc2cc(c1Cl)N(C)C(=O)C[C@H](OC(=O)[C@H](C)N(C)C(=O)CCSSc1ccccc1)[C@]1(C)O[C@H]1[C@H](C)[C@@H]1C[C@@](O)(NC(=O)O1)[C@H](OC)/C=C/C=C(\C)C2` [Compound 6e], the results for the IC50 in series [1] (setting [14]) and in series [3] (setting [12]) were 100 pM and 600 pM, respectively.

As for `COc1cc2cc(c1Cl)N(C)C(=O)C[C@H](OC(=O)[C@@H](C)N(C)C(=O)CCSSc1ccccc1)[C@]1(C)O[C@H]1[C@H](C)[C@@H]1C[C@@](O)(NC(=O)O1)[C@H](OC)/C=C/C=C(\C)C2` [Compound 6f], in series [1], the “times less toxic than L counterpart” value is given as ≥ 20 times. In addition, the IC50 in series [1] (setting [14]) is 2000 pM; in series [3] (setting [12]), 8000 pM.

Consider `COc1cc2cc(c1Cl)N(C)C(=O)C[C@H](OC(=O)[C@H](C)N(C)C(=O)CCS)[C@]1(C)O[C@H]1[C@H](C)[C@@H]1C[C@@](O)(NC(=O)O1)[C@H](OC)/C=C/C=C(\C)C2` [Compound 7b], for which the IC50 in series [1] (setting [14]) was 600 pM; in series [2] (setting [15]) it was < 10 pM; in series [3] (setting [12]) it was 10000 pM.

What is called IC50 is the concentration needed to halve the response being measured.

These data come from EP0425235B1, “Cytotoxic agents comprising maytansinoids and their therapeutic use” (IMMUNOGEN INC, priority 1989, dated 1991).
